{
  "source": "patent US8883841B2",
  "about": "“Oncogenic ras-specific cytotoxic compound and methods of use thereof” (The Board of Regents of the University of Texas System, priority 2005, dated 2014)",
  "key": {"phosphorylated PKCiota": {"test_system": "phosphorylated PKCiota", "assay": "Western blot analysis of phosphorylated PKCiota", "format": "cell-based, human", "details": "12 h", "protocol": "(§1) Ras Signaling Pathway and Molecular Mechanisms of Oncrasin-induced apoptosis. To investigate molecular mechanisms of apoptosis induction by Oncrasin compounds, levels several proteins that are involved in apoptosis and/or involved in Ras signaling pathways were determined, including Bax, Bik, Bc12, Bcl-XL, Raf-1, B-Raf, Akt, Mst1 and atypical protein kinase C (aPKC) zeta and PKCiota. To study which molecules are affected by Oncrasin treatment, T29, T29Kt1 and H460 cells were treated with Oncrasin-1 at an optimal concentration, around IC60 to IC80 for T29Kt1 and H460 cells. Cell lysates were collected 12 h after the treatment and subjected to Western blot analysis."}, "[1]": {"test_system": "phosphorylated RNA polymerase II and SR proteins", "assay": "Western blot for phosphorylated RNA polymerase II and SR proteins", "format": "cell-based, human", "details": "10 μM (T29Kt1) or 1 μM (H460), 12 h", "protocol": "FIGS. 16A and 16B Effect on RNA processing machinary. (FIG. 16A) T29, T29Kt1, and H460 cells were treated with 10 μM Oncrasin-1 (T29 and T29Kt1) or 1 μM Oncrasin-1 (H460). Twelve hours later, cells were harvested for Western blot analysis for phosphorylation of RNA polymerase II and SR proteins. Cells treated with DMSO were used as control (C). (T) cells treated with Oncrasin-1. Arrows indicate reduced phosphorylation of the polymerase II (pPolII) and SR proteins (pSR) (FIG. 16B) In vitro transcription assay with HeLa cell nuclear extracts (Promoega). The assay was performed following manufacturers instructions. The concentrations used are indicated on the top of the panel. DRB was used as positive control for transcription inhibition.\nTo further test the role of RNA transcription and splicing in Oncrasin-mediated antitumor activity the phosphorylation of the largest subunit of RNA polymerase II and splicing factors were analyzed. T29, T29Kt1 and H460 cells were treated with Oncrasin-1 at an optimal concentration, around IC60 to IC80 for T29Kt1 and H460 cells. Cell lysates were collected 12 h after the treatment and subjected to Western blot analysis with antibodies specific for phosphorylated RNA polymerase If (H5, Covance Research Products, Inc., Berkeley, Calif.) and SR proteins (1H4, Zymed, obtained from Invitrogen, Carlsbad, Calif.)."}, "PKCiota": {"test_system": "PKCiota", "assay": "Immunohistochemical staining, subcellular localization of PKCiota", "format": "cell-based, human", "protocol": "(§2) Effects on subcellular localization of PKCiota. […] To further investigate molecular mechanisms of Oncrasin action the inventors studied the subcellular localization of several molecules involved in Ras-signaling pathway because the functions of Ras and other proteins are directly related to their subcellular localizations. For this purpose, T29Kt1 or H460 cells were seeded on cover glass slides and treated with DMSO or Oncrasin-1 for 12 h. Cells were then fixed with paraformaldehyde, permeabilized with Triton X-100 and stained with various antibodies for immunohistochemical examination. […] Nevertheless, substantial subcellular localization change was detected for PKCiota after Oncrasin-1 treatment (FIG. 6). In both H460 and T29Kt1 cells, both PKCiota and PKCzeta were diffusely distributed in cells with high concentration on cell membrane in nucleus, consisting with previous reports that aPKC contains both nuclear localization signal (NLS) and nuclear export signal (NES), and can shuttle between cytoplasm and nucleus, which was regulated by intramolecular conformational changes, phosphorylation or by treatment with growth factors (Perander et al., 2001; White et al., 2002; Neri et al., 1999). […] Such aggregation of PKCiota was not observed in Oncrasin-resistant T29 and H1299 cells. The inventors then tested whether PKCiota aggregation in the nucleus can be induced by other chemotherapeutic agents such as 5-fluorouracil (5-FU) and paclitaxol."}, "H460 cells [2]": {"test_system": "H460 cells", "assay": "K-Ras siRNA knockdown, Oncrasin-induced apoptosis by FACS in H460 cells", "format": "cell-based, human", "details": "1 μM, 12 h, compared with DMSO", "protocol": "K-Ras knockdown inhibited Oncrasin-induced apoptosis. To further study the role of K-Ras gene in Oncrasin-induced cell death, H460 cells were treated with […] of K-Ras specific siRNA or a control siRNA for 24 h. The cells were then treated with DMSO or 1 μM Oncrasin-1. After another 12 h, the cells were harvested for apoptosis detection by fluorescence-activated cytometric assay. The cell lysate was also used to detect K-Ras gene expression."}, "H460 cells [3]": {"test_system": "H460 cells", "assay": "PKCiota siRNA knockdown, apoptosis by FACS in H460 cells", "format": "cell-based, human", "details": "1 μM, 12 h", "protocol": "Knockdown of PKCiota suppressed Oncrasin-mediated apoptosis and cytotoxicity. To investigate possible role of PCKiota in Oncrasin-1 mediated cytotoxicity, PKCiota was knocked down in H460 cells by using oligo ribonucleotides. H460 cells were treated with 200 pM PKCiota siRNA for 24 h, and then with DMSO or 1 μM Oncrasin for another 12 h. After that, cells harvested for analysis of apoptosis by fluorescence-activated cell sorting (FACS) and for expression of PKCiota by Western blot analysis. […] To further study the effect of atypical PKC in Oncrasin-induced cytotoxicity, the inventors obtained plasmids encoding PKCiota and PKCzeta siRNA from Origene Corporation and made stable PKCiota and PKCzeta knockdown T29Kt1 cells. […] The IC50 in PKCiota knockdown T29Kt1 cells were 100 fold higher than parental T29K cells. […] Thus, compounds with synthetic lethality for PKCiota might be useful for treatment of those cancers."}, "[4]": {"test_system": "Bax, Bik, Bcl-2, Bcl-XL, Mst1, B-Raf, PKCzeta and PKCiota", "assay": "Western blot analysis of apoptosis/Ras signaling proteins", "format": "cell-based, human", "details": "T29, T29Kt1 and H460 cells, 12 h", "protocol": "as §1"}, "[5]": {"test_system": "Raf-1, Akt, PKCzeta, PKCdelta, and p53", "assay": "Immunohistochemical staining, subcellular localization of Raf-1, Akt, PKCzeta, PKCdelta, p53", "format": "cell-based, human", "details": "T29Kt1 or H460 cells, 12 h", "protocol": "as §2, with “The inventors then tested whether PKCiota aggregation in the nucleus can be induced by other chemotherapeutic agents such as 5-fluorouracil (5-FU) and paclitaxol.” left out"}},
  "data": [
    {"smiles": "O=Cc1cn(Cc2ccc(Cl)cc2)c2ccccc12", "note": "[Oncrasin K001, 1H-Indole-3-carboxaldehyde, 1-[(4-chlorophenyl)methyl]-(9CI)]", "values": [
      {"measurement": "phosphorylated PKCiota in H460 and T29K cells", "setting": "phosphorylated PKCiota", "value": "increase in phosphorylated PKCiota"},
      {"measurement": "phosphorylated PKCiota in T29 cells", "setting": "phosphorylated PKCiota", "value": "but not in Oncrasin-1 resistant T29 cells"},
      {"measurement": "phosphorylated RNA polymerase II and certain SR proteins", "setting": "[1]", "value": "dramatic suppression"},
      {"measurement": "PKCiota aggregation in the nucleus, H460 cells", "setting": "PKCiota; 12 h", "value": "aggregation of PKCiota into large foci in nucleus"},
      {"measurement": "PKCiota aggregation in the nucleus, T29Kt1 cells", "setting": "PKCiota; 12 h, comparators at doses giving similar cell killing", "value": "aggregation of PKCiota into large foci in nucleus"},
      {"measurement": "PKCiota aggregation, T29 and H1299 cells", "setting": "PKCiota; Oncrasin-resistant cells", "value": "not observed"},
      {"measurement": "apoptotic cells, control siRNA treated H460", "setting": "H460 cells [2]", "value": "dramatic increase of apoptotic cells"},
      {"measurement": "toxicity to T29H cells", "setting": "T29Ht1 cells; at 33 μM (the highest concentration tested)", "value": "not toxic"},
      {"measurement": "toxicity to T29Ht1 (T29H) cells", "setting": "T29Ht1 cells; at any of the doses tested (dose response)", "value": "not toxic"},
      {"measurement": "cytotoxicity in T29Ht1 cells", "setting": "T29Ht1 cells; up to 100 μM, the highest concentration tested", "value": "no detectable cytotoxicity"},
      {"measurement": "apoptosis in H460 cells after knockdown of PKCiota by siRNA", "setting": "H460 cells [3]", "value": "dramatically suppressed Oncrasin-induced apoptosis"},
      {"measurement": "levels of Bax, Bik, Bcl-2, Bcl-XL, Mst1, B-Raf, PKCzeta and PKCiota", "setting": "[4]", "value": "did not result in noticeable changes"},
      {"measurement": "subcellular localization of Raf-1, Akt, PKCzeta, PKCdelta, and p53", "setting": "[5]", "value": "did not induce obvious changes"}
    ]}
  ]
}
